Legend:
Assay in all cases: relative viability (nuclei count vs DMSO), 5 days (fraction); higher = more cells survive
A-427 = tested on: A-427
Summary of the method: (§1)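 Lung cancer cell lines in 1536-well plates were dosed by pin tool the day after seeding, either with one drug alone or with a fixed anchor-drug dose plus five library-drug doses (not always all listed) in √10 steps. After 5 days, cells were fixed and their nuclei stained in one step (final 0.05% Triton X-100, 1% formaldehyde, 1 ug/ml Hoechst), then counted on 4× images. Relative viability is the nuclei count in treated wells divided by that in vehicle wells. Values are medians of duplicate plates.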

HCC-78 = tested on: HCC-78
Summary of the method: as §1

NCI-H460 = tested on: NCI-H460
Summary of the method: as §1

NCI-H1666 = tested on: NCI-H1666
Summary of the method: as §1

SK-LU-1 = tested on: SK-LU-1
Summary of the method: as §1

LC-2-ad = tested on: LC-2-ad
Summary of the method: as §1

NCI-H2009 = tested on: NCI-H2009
Summary of the method: as §1

COR-L 105 = tested on: COR-L 105
Summary of the method: as §1

NCI-H2085 = tested on: NCI-H2085
Summary of the method: as §1

UMC-11 = tested on: UMC-11
Summary of the method: as §1

EPLC-272H = tested on: EPLC-272H
Summary of the method: as §1

LU99A = tested on: LU99A
Summary of the method: as §1

HCC-366 = tested on: HCC-366
Summary of the method: as §1

NCI-H1792 = tested on: NCI-H1792
Summary of the method: as §1

LXF-289 = tested on: LXF-289
Summary of the method: as §1

NCI-H1915 = tested on: NCI-H1915
Summary of the method: as §1

HOP-62 = tested on: HOP-62
Summary of the method: as §1

CCN(CC)CCCCNc1ncc2cc(-c3cc(OC)cc(OC)c3)c(NC(=O)NC(C)(C)C)nc2n1 + CC(C)C[C@H](NC(=O)[C@H](Cc1ccccc1)NC(=O)c1cnccn1)B(O)O [Bortezomib] (partner 0.002 µM)
relative viability (A-427; first compound 0.01 µM): 1.1
relative viability (A-427; first compound 0.03162 µM): 0.989
relative viability (A-427; first compound 0.1 µM): 1.12
relative viability (A-427; first compound 0.3162 µM): 1.06
relative viability (A-427; first compound 1 µM): 0.913
relative viability (HCC-78; first compound 0.01 µM): 0.66
relative viability (HCC-78; first compound 0.03162 µM): 0.487
relative viability (HCC-78; first compound 0.1 µM): 0.395
relative viability (HCC-78; first compound 0.3162 µM): 0.492
relative viability (HCC-78; first compound 1 µM): 0.464
relative viability (NCI-H460; first compound 0.01 µM): 1.3
relative viability (NCI-H460; first compound 0.03162 µM): 1.33
relative viability (NCI-H460; first compound 0.3162 µM): 1.62
relative viability (NCI-H460; first compound 1 µM): 1.04
relative viability (NCI-H1666; first compound 0.01 µM): 0.74
relative viability (NCI-H1666; first compound 0.03162 µM): 0.848
relative viability (NCI-H1666; first compound 0.1 µM): 0.837
relative viability (NCI-H1666; first compound 0.3162 µM): 0.724
relative viability (NCI-H1666; first compound 1 µM): 0.733
relative viability (SK-LU-1; first compound 0.01 µM): 1.1
relative viability (SK-LU-1; first compound 0.03162 µM): 0.911
relative viability (SK-LU-1; first compound 0.1 µM): 1.27
relative viability (SK-LU-1; first compound 0.3162 µM): 1.75
relative viability (SK-LU-1; first compound 1 µM): 1.06
relative viability (LC-2-ad; first compound 0.01 µM): 0.998
relative viability (LC-2-ad; first compound 0.03162 µM): 1.06
relative viability (LC-2-ad; first compound 0.1 µM): 1.33
relative viability (LC-2-ad; first compound 0.3162 µM): 1.05
relative viability (LC-2-ad; first compound 1 µM): 1
relative viability (NCI-H2009; first compound 0.01 µM): 0.958
relative viability (NCI-H2009; first compound 0.03162 µM): 1.06
relative viability (NCI-H2009; first compound 0.1 µM): 1.1
relative viability (NCI-H2009; first compound 0.3162 µM): 1.07
relative viability (NCI-H2009; first compound 1 µM): 0.966
relative viability (COR-L 105; first compound 0.01 µM): 0.691
relative viability (COR-L 105; first compound 0.03162 µM): 0.824
relative viability (COR-L 105; first compound 0.1 µM): 0.859
relative viability (COR-L 105; first compound 0.3162 µM): 0.968
relative viability (COR-L 105; first compound 1 µM): 0.732
relative viability (NCI-H2085; first compound 0.01 µM): 0.991
relative viability (NCI-H2085; first compound 0.03162 µM): 1.03
relative viability (NCI-H2085; first compound 0.1 µM): 1.09
relative viability (NCI-H2085; first compound 0.3162 µM): 1.15
relative viability (NCI-H2085; first compound 1 µM): 0.999
relative viability (UMC-11; first compound 0.01 µM): 0.702
relative viability (UMC-11; first compound 0.03162 µM): 0.722
relative viability (UMC-11; first compound 0.1 µM): 0.73
relative viability (UMC-11; first compound 0.3162 µM): 0.945
relative viability (UMC-11; first compound 1 µM): 0.544
relative viability (EPLC-272H; first compound 0.01 µM): 1.02
relative viability (EPLC-272H; first compound 0.1 µM): 0.921
relative viability (EPLC-272H; first compound 0.3162 µM): 1.03
relative viability (EPLC-272H; first compound 1 µM): 0.796
relative viability (LU99A; first compound 0.01 µM): 1.03
relative viability (LU99A; first compound 0.03162 µM): 1.16
relative viability (LU99A; first compound 0.1 µM): 1.34
relative viability (LU99A; first compound 0.3162 µM): 1.23
relative viability (LU99A; first compound 1 µM): 1.13
relative viability (HCC-366; first compound 0.01 µM): 1.09
relative viability (HCC-366; first compound 0.03162 µM): 1.06
relative viability (HCC-366; first compound 0.1 µM): 1.48
relative viability (HCC-366; first compound 0.3162 µM): 1.29
relative viability (HCC-366; first compound 1 µM): 0.968
relative viability (NCI-H1792; first compound 0.01 µM): 1.05
relative viability (NCI-H1792; first compound 0.03162 µM): 1.05
relative viability (NCI-H1792; first compound 0.1 µM): 0.924
relative viability (NCI-H1792; first compound 0.3162 µM): 1.38
relative viability (NCI-H1792; first compound 1 µM): 0.689
relative viability (LXF-289; first compound 0.01 µM): 0.99
relative viability (LXF-289; first compound 0.03162 µM): 1.08
relative viability (LXF-289; first compound 0.1 µM): 1.16
relative viability (LXF-289; first compound 0.3162 µM): 0.955
relative viability (LXF-289; first compound 1 µM): 0.846
relative viability (NCI-H1915; first compound 0.01 µM): 1.07
relative viability (NCI-H1915; first compound 0.03162 µM): 1.1
relative viability (NCI-H1915; first compound 0.1 µM): 1.18
relative viability (NCI-H1915; first compound 0.3162 µM): 1.09
relative viability (NCI-H1915; first compound 1 µM): 0.951
relative viability (HOP-62; first compound 0.01 µM): 0.726
relative viability (HOP-62; first compound 0.03162 µM): 0.888
relative viability (HOP-62; first compound 0.1 µM): 0.728
relative viability (HOP-62; first compound 0.3162 µM): 0.717
relative viability (HOP-62; first compound 1 µM): 0.79

From the supplement of paper PMC10307832
